Experimental data published in US20130236441A1, “METHODS OF TREATING AND PREVENTING THROMBOTIC DISEASES USING ASK1 INHIBITORS” (University of Delaware, priority 2010, published 2013).

Experiments:
[1] = tested on: WT or Ask1−/− mouse platelets; assay: 14C-serotonin release (dense granule secretion) from agonist-stimulated mouse platelets; assay type: cell-based; conditions: aspirin pretreatment
Method: (A) ^14C-serotonin-labeled platelets (2.5×10^8 per ml) from Ask1^+/+ and Ask1^−/− mice were stimulated with various concentration of thrombin for 5 min, and the ^14C-serotonin release was determined using a liquid scintillation counter. (B) Platelets from Ask1^+/+ and Ask1^−/− mice were stimulated with various concentrations of thrombin for 5 min and P-selectin exposure on the platelet surface was determined using flow cytometry. Granular secretion was assessed using WT or Ask1−/− mouse platelets in response to low and high dose of agonists such as thrombin (FIG. 7A) and thrombin/PAR4-peptide (AYPGKF) (FIG. 7B). Dense granule secretion was analyzed by measuring ^14C-serotonin release (FIG. 7A). α-granule secretion was assessed by P-selectin exposure using flow cytometry (FIG. 7B). Ask1 regulated a significant portion of dense granule secretion induced by high dose of thrombin (FIG. 7A). Similar results were obtained when P-selectin exposure was assessed as a measure of α-granule secretion (FIG. 7B).

ASK1 = ASK1 T838 phosphorylation in thrombin-stimulated washed human platelets (Western blot); assay type: cell-based; conditions: thrombin 0.05 U-1 U/ml
Method: Washed human platelets (2×10^8) were stimulated with thrombin (1 U/ml) for various time periods as indicated, and the lysates were Western blotted using phospho-specific antibodies against (A) ASK1, (B) MKK3 and P38, and (C) MKK4, and reprobed with corresponding antibodies against total proteins (Cell Signaling Technology, Inc.) to ensure relatively equal loading of ASK1, MKK3, P38 or MKK4 protein in each of its respective lanes.
A study was carried out to determine whether ASK1 was activated during agonist-induced platelet stimulation. A well-characterized antibody specific to the phosphorylated threonine 838 (T838) of ASK1 was used. […] Upon stimulation with as low as 0.05 U-1 U/ml of thrombin, ASK1 was activated rapidly and transiently as evidenced by phosphorylation of T838 (FIG. 3A). In a low percentage SDS-PAGE, ASK1 appeared as a doublet.

Row | Compound | amount of serotonin released ([1]; Ask1−/− platelets) | amount of serotonin released ([1]; WT platelets) | ASK1 activation (phosphorylation of T838) (ASK1)
1 | CC(=O)Oc1ccccc1C(=O)O [aspirin] | no effect | reduced the amount of serotonin released to that of Ask1−/− platelets | 
2 | thrombin |  |  | dose-dependently activated
